{"source": "patent US8492391B2", "about": "“Substituted 6-(2-hydroxybenzylamino)purine derivatives, their use as medicaments and compositions containing these derivatives” (Univerzita Palackeho V Olomouci, priority 2009, dated 2013)", "key": {"CDK9/cyclin T": {"molecular_target": "T1, CDK9/cyclin T (Homo sapiens, UniProt P50750)", "T1 construct": "made in house; host or cells: Sf9 insect cells, baculovirus co-infection", "assay": "CDK9/cyclin T kinase inhibition assay", "assay_type": "biochemical", "details": "kinase inhibitory activity, 15 μM ATP, (YSPTSPS)3 peptide substrate", "description": "Selected compounds were tested for CDK1/cyclin B, CDK2/cyclin E, CDK5/p25, CDK7/cyclin H and CDK9/cyclin T inhibitory activity to determine the basic relationships between their structure and the inhibitory activity. Cdk/cyclin complexes were expressed in Sf9 cells co-infected with appropriate baculoviral construct. The cells were harvested 70 hours post infection in lysis buffer (50 mM Tris pH 7.4, 150 mM NaCl, 5 mM EDTA, 20 mM NaF, 1% Tween 20, protease inhibitors) for 30 min on ice and the soluble fraction was recovered by centrifugation at 14.000 g for […]. The protein extract was stored at −80° C. until use. The final point test system for kinase activity measurement was used to carry out experiments on the kinetics under linear conditions. […] ATP and tested compound in a final volume of 20 μl, all in reaction buffer: 50 mM Hepes pH 7.4, 10 mM MgCl2, 5 mM EGTA, 10 mM 2-glycerolphosphate, 1 mM NaF, 1 mM DTT and protease inhibitors. After 30 min, the incubations were stopped by adding 5% H3PO4 and then the proteins were separated by phosphocellulose binding. The measurement of kinase inhibition employed the digital imaging analyzer BAS 1800. The kinase activity was expressed as a percentage of maximum activity and the IC50 value was determined by graphic analysis. The kinase activity is expressed as a percentage of maximum activity (FIG. 1)."}, "[1]": {"system": "HOS (human osteogenic sarcoma)", "assay": "Calcein AM cytotoxicity assay, HOS", "assay_type": "cell-based", "details": "Homo sapiens, read-out: Cytotoxic activity IC50 (μM) HOS", "excerpt": "Cytotoxicity of the compounds is the major property determining their anticancer effect in vivo. One of the parameters used, as the basis for cytotoxicity assays, is the metabolic activity of viable cells. For example, a microtiter assay, which uses the Calcein AM, is now widely used to quantitate cell proliferation and cytotoxicity. For instance, this assay is used in drug screening programs and in chemosensitivity testing. Because only metabolically active cells cleave Calcein AM, these assays detect viable cells exclusively. The quantity of cleaved Calcein AM corresponds to the number of vital cells in the culture. We have been using the following cell lines: MCF7 (human breast adenocarcinoma), K562 (human chronic myelogenous leukaemia), HOS (human osteogenic sarcoma), HeLa (human cervical carcinoma), HL 60 (human promyelocytic leukaemia), G 361 (human malignant melanoma), CEM (human lymphoblastoid leukaemia). All cell lines were grown in DMEM medium (Gibco BRL) supplemented with 10% (v/v) fetal bovine serum and L-glutamine and maintained at 37° C. in a humidified atmosphere with 5% CO2. For cytotoxicity assays, 10^4 cells were seeded into each well of 96 well plate, allowed to stabilize for at least 2 h and then tested compounds were added at various concentrations ranging from 100 to 0.1 μM in triplicates. Three days after drug addition Calcein AM solution (Molecular Probes) was added and let to enter the cells for 1 hour. Fluorescence of viable cells was quantified using Fluoroskan Ascent (Microsystems)."}, "p53 in RPMI-8226 cells": {"system": "p53 in RPMI-8226 cells", "assay": "Immunoblotting in RPMI-8226 cells with temperature-sensitive p53 (E285K) at permissive and restrictive temperature", "assay_type": "cell-based, human", "description": "For immunoblotting, cell were detached with rubber policeman and washed three times with ice-cold PBS and lysed in buffer (50 mM Tris, pH 7.4, 250 mM NaCl, 5 mM EDTA, 50 mM NaF, 1 mM Na3VO4, 1% Nonidet P40) containing mixture of protease and phosphatase inhibitors (Sigma-Aldrich, USA). 20 μg of total proteins were separated by SDS-polyacrylamide gel electrophoresis (SDS-PAGE) and transferred onto nitrocellulose membranes. Membranes were blocked in 5% milk and 0.1% Tween 20 in PBS and probed overnight with specific monoclonal antibodies or rabbit polyclonal sera. […] All primary antibodies were diluted in PBS containing 5% powdered milk; 0.1% Tween 20. Peroxidase conjugated rabbit anti-mouse immunoglobulin or porcine anti-rabbit immunoglobulin antisera (DAKO, Denmark) were used as the secondary antibodies and visualised with ECL reagents (Amersham-Pharmacia, Little Chalfont, UK).\nThen, we also determined effect of the compounds on the cell lines expressing some temperature-sensitive mutants of p53. For example, in BT474 and RPMI-8226 cells bearing temperature-sensitive mutant of p53 (E285K), p53 protein switches between mutant and wild-type conformation in a temperature-dependent manner. At restrictive (37° C.) temperature mutated p53 protein is expressed, while after shift to a permissive (30° C.) temperature p53 is folded correctly and functional. To analyze the functional involvement of p53 in the efficiency of the treatment with the compounds, we cultivated RPMI-8226 cells independently at two different temperatures (restrictive or permissive), and exposed them to increasing doses of selected compounds. The cell lysates were prepared and the levels of cell cycle regulators were analysed by immunoblotting."}, "P388D1 leukemia": {"system": "P388D1 leukemia", "assay": "Survival model of P388D1 leukemia transplanted intraperitoneally", "assay_type": "in vivo, DBA-2 mice", "details": "250 mg/kg orally twice daily, Days 1-3 and 7-9", "description": "Screening of biological activity of compound 128 was performed on survival model of P388D1 leukemia transplanted intraperitoneally with 2.10^5 cells. DBA-2 mice were used as a host. One day following the leukemia transplantation, treatment with 128 was initiated. The drug was given orally by gastric gavages in total volume of 200 μl/dose twice daily at dose 250 mg/kg in two chemotherapy cycles (Days 1-3 and 7-9). The compound 128 was solubilized in 5% N-methyl-2-pyrollidine, 30% polyethylene glycol 400, 65% tartar buffer (pH 3.0). Survival analysis of treated animals (10 mice/group) was preformed in comparison with vehicle treated mice using Kaplan-Meier method and the significance was evaluated by the log-rank test. Body weight of experimental animals was evaluated in parallel in order to reflect toxicity and efficacy of therapy. Comparative analysis of body weight was performed using non-parametric t-test."}, "A549 lung adenocarcinoma": {"system": "A549 lung adenocarcinoma", "assay": "Human xenograft model of A549 lung adenocarcinoma", "assay_type": "in vivo", "details": "150 mg/kg orally twice daily", "description": "More detailed analysis of anticancer activity of compound 128 was performed on human xenograft model of A549 lung adenocarcinoma transplanted to CD-1 SCID mice. Animals were transplanted subcutaneously with 2.10^6 A549 cells into lower back. Approximately one month later, majority of animals developed palpable tumors and therapy was initiated. The drug was given orally by gastric gavages in total volume of 200 μl/dose twice daily at dose 150 mg/kg in two chemotherapy cycles (Days 1-3 and 7-9). The compound 128 was solubilized in 5% N-methyl-2-pyrollidine, 30% polyethylene glycol 400, 65% tartar buffer (pH 3.0). Primary endpoint for analysis was reduction of tumor volume (10 mice/group), which was quantified by caliperation. Analysis of treated animals was preformed in comparison with vehicle treated mice. Body weight of experimental animals was also evaluated in parallel in order to reflect toxicity of the therapy. Comparative analysis of tumor volumes and body weights was performed using non-parametric t-test."}}}
{"smiles": "CCC(CO)Nc1nc(NCc2cccc(OC)c2O)c2ncn(C(C)C)c2n1", "note": "(racemic) [Compound 128, (RS)-2-({6-[(2-hydroxy-3-methoxybenzyl)amino]-9-isopropyl-9-H-purin-2-yl}amino)butan-1-ol]", "values": [{"measurement": "IC50", "setting": "CDK9/cyclin T", "value": 0.04, "unit": "µM"}, {"measurement": "IC50", "setting": "[1]", "value": 5.9, "unit": "µM"}, {"measurement": "drug concentration causing fragmentation of PARP-1, permissive versus restrictive temperature", "setting": "p53 in RPMI-8226 cells; RPMI-8226 cells", "value": "about two-fold lower drug concentrations"}, {"measurement": "level of wild-type p53 protein", "setting": "p53 in RPMI-8226 cells; RPMI-8226 cells at permissive (30° C.) temperature", "value": "caused accumulation of wild-type p53 protein"}, {"measurement": "level of mutant p53", "setting": "p53 in RPMI-8226 cells; RPMI-8226 cells at restrictive (37° C.) temperature", "value": "did not change the levels of mutant p53"}, {"measurement": "expression of anti-apoptotic protein Mcl-1", "setting": "p53 in RPMI-8226 cells; RPMI-8226 cells, 30° C. versus restrictive temperature", "value": "suppressed more efficiently at 30 °C"}, {"measurement": "body weight of treated animals", "setting": "P388D1 leukemia", "value": "reducing body weight of treated animals"}, {"measurement": "mean survival time", "setting": "P388D1 leukemia", "value": 27.4, "unit": "days"}, {"measurement": "survival (Kaplan-Meier, log-rank test)", "setting": "P388D1 leukemia; vs vehicle, P=0.0427", "value": "significantly better survival"}, {"measurement": "mean survival time", "setting": "A549 lung adenocarcinoma; Days 1-3 and 7-9", "value": 39.1, "unit": "days"}, {"measurement": "tolerability", "setting": "A549 lung adenocarcinoma; Days 1-3 and 7-9", "value": "good tolerability"}, {"measurement": "tumor volume", "setting": "A549 lung adenocarcinoma; Days 1-3 and 7-9, vs vehicle, P=0.0506", "value": "significantly smaller tumors"}, {"measurement": "body weight of treated animals", "setting": "A549 lung adenocarcinoma; significant at Day 52 only", "value": "only slight reduction the body weight"}]}
